Key:
Assay type in all cases: in vivo, C57Bl/6 mice
[1] = test system: experimental allergic encephalomyelitis (EAE) mice; assay: Prophylactic intraperitoneal treatment of dapansutrile in EAE mice; conditions: 60 mg/kg i.p. twice daily, Day 0 to Day 21
Method: (§1) Active immunization was done in female adult (8 weeks old) C57Bl/6 mice. Briefly, mice were subcutaneously injected with […] of myelin oligodendrocyte glycoprotein (MOG)35-55 peptide ([…], SEQ ID NO: 1) emulsified in complete Freund's Adjuvant (Sigma Aldrich) supplemented with 4 mg of micobacterioum tuberculosis H37RA (DIFCO Laboratories). On day 0 and 2 post-immunization, mice were also injected intraperitoneally (i.p.) with 500 ng of pertussis toxin (List Biological Laboratories).
Starting on day 0 (day of immunization), mice were injected intraperitoneally twice daily with dapansutrile (OLT1177™, 60 mg/kg) or saline until the end of the study (Day 21). Each treated group had 10 mice.
Animals were monitored daily for signs of EAE and the scoring system is as follows: 0=no clinical symptoms, normal walking; 0.5=partial paralyzed tail, 1=fully paralyzed tail; 2=mild hind-limb weakness, quick righting reflex; 3=severe hind-limb weakness, slow righting reflex, unable to bear weight; 3.5=severe hind-limb weakness and partial paralysis of hind limb; 4=complete paralysis of at least one hind limbs; 4.5=complete paralysis of one or both one hind limbs and trunk weakness; 5=complete paralysis of one or both hind limbs, forelimb weakness or paralysis; 6=mouse is found dead by EAE. […]

[2] = test system: experimental allergic encephalomyelitis (EAE) mice; assay: Oral gavage treatment with dapansutrile in EAE mice starting at disease onset
Method: as §1
(§2) Animals were monitored daily for signs of EAE and the scoring system is as follows: 0=no clinical symptoms, normal walking; 0.5=partial paralyzed tail, 1=fully paralyzed tail; 2=mild hind-limb weakness, quick righting reflex; 3=severe hind-limb weakness, slow righting reflex, unable to bear weight; 3.5=severe hind-limb weakness and partial paralysis of hind limb; 4=complete paralysis of at least one hind limbs; 4.5=complete paralysis of one or both one hind limbs and trunk weakness; 5=complete paralysis of one or both hind limbs, forelimb weakness or paralysis; 6=mouse is found dead by EAE.
(§3) EAE mice were euthanized at either day 21 or 23 post-immunization with an overdose of pentobarbital sodium (Dolethal) and transcardially perfused with 4% paraformaldehyde (PFA) in 0.1M phosphate buffer (PB). Lumbar segments of spinal cords were harvested, post-fixed in 4% PFA for 2 hours and cryoprotected in 30% sucrose in 0.1M at 4° C. for at least 48 hours. Spinal cords were embedded in TissueTek OCT (Sakura), cut in transversal sections (15 μm-thick) with a cryostat (Leica) between L3 and L5 segments and serially picked up on gelatine-coated glass slides. Samples were stored at −20° C.
(§4) Sections were stained with Luxol Fast Blue (LFB) (Sigma Aldrich). Briefly, after a graded dehydration, sections were placed in 1 mg/mL of LFB solution in 96% EtOH and 0.05% acetic acid overnight at 37° C. and protected from light. Then, slides were washed with 96% EtOH, rehydrated in distilled water and placed in a 0.5 mg/mL Li2CO3 solution for 3-5 minutes at room temperature. Finally, sections were washed in distilled water, dehydrated again in 100% EtOH and mounted in DPX (Sigma Aldrich). To assess the demyelinated area in the spinal cord, 6 random images per mice were captured at 10× magnification with an Olympus BX51 and the attached Olympus DP73 Camera. The total demyelinated area within the spinal cord was measured with Image J image analysis software.
(§5) EAE induction, functional assessment, and histological analysis were the same as those described in Example 2.
60 mg/kg of dapansutrile was solubilized with distilled water and administered daily by oral gavage at 60 mg/kg animal weight to mice twice per day. […] Control mice were administered distilled water at the same days. […]

[3] = test system: experimental allergic encephalomyelitis (EAE) mice; assay: Prophylactic oral treatment (dapansutrile-enriched diet) in EAE mice
Method: as §1, §2, §3, §4, §5
Starting on day 0 (day of immunization), EAE-mice were fed either a dapansutrile-enriched diet or a standard diet. […]

[4] = 60 mg/kg oral gavage twice daily from disease onset, vs vehicle (FIG. 3B)
[5] = diet with 3.75 g dapansutrile per kg food, Day 0 to Day 23, vs standard diet (FIG. 2B)

SMILES: CS(=O)(=O)CCC#N [dapansutrile, 3-methanesulfonylpropionitrile]
- demyelination in the lumbar spinal cord (LFB staining) ([1]; vs saline (FIG. 1B)): reduced the demyelination in the spinal cord
- EAE clinical score ([1]; vs saline, significant from day 11 to day 21 (FIG. 1A)): significant lower disease scores
- reduction in the EAE score compared to vehicle ([2]; 60 mg/kg oral gavage twice daily from disease onset (FIG. 3A)): about 1 point
- cumulative clinical EAE score [2, 4]: significantly reduced
- maximum clinical EAE score [2, 4]: significantly reduced
- demyelination in LFB stained spinal cords ([2]; 60 mg/kg oral gavage twice daily from disease onset, vs vehicle (FIG. 3C)): protection against demyelination
- daily EAE clinical scores after disease onset ([3]; diet with 3.75 g dapansutrile per kg food (about 50 mg/kg/day), Day 0 to Day 23, vs standard diet (FIG. 2A)): lower daily EAE clinical scores
- cumulative EAE score [3, 5]: lower cumulative EAE scores
- maximum EAE score [3, 5]: lower maximum EAE scores
- reduction of demyelination in the spinal cord ([3]; diet with 3.75 g dapansutrile per kg food, 23 days after immunization, vs standard food (FIG. 2C)): about 2 fold

Reference: patent US10548870B2, “Method for treating multiple sclerosis” (OLATEC THERAPEUTICS LLC, priority 2017, dated 2020)
